PMC7311426, “An amphipathic peptide with antibiotic activity against multidrug-resistant Gram-negative bacteria” (Nature Communications, 2020)

System: A. baumannii clinical isolates
Assay: microbe, parasite or virus in culture
Experimental: The in vitro activity of AA139 and comparator antimicrobials was determined in two panels of clinical isolates of E. coli, K. pneumoniae, P. aeruginosa, and A. baumannii (Supplementary Table 3), and MIC90 presented. The US panel consisted of 331 clinical isolates from 2010 to 2012. It was tested by BMD in accordance with the CLSI guidelines (M07-A9, 2012)[39]. […] AA139 was diluted in 0.01% acetic acid/0.1% bovine serum albumin. Sterile polypropylene culture cluster round-bottom 96-well plates (Costar # 3879) were used for testing. The worldwide panel consisted of 445 clinical isolates from 2011 to 2013, geographically divided into Asia, Europe, North America, and Rest of World (Middle East, Latin America, Africa, and South Pacific) with each region representing ~25% of the isolates. It was tested by broth microdilution in accordance with the CLSI guidelines (M07-A9, 2012)[39]. […] The test media was CAMHB (Becton Dickinson). AA139 and polymyxin B were tested in media supplemented with 0.002% Tween 80 (Calbiochem). MIC90 values were calculated for all or subsets of the isolates. MIC correlation between AA139 and colistin was analyzed with data from the US panel.

[1] = US isolates 2010-2012, isolate CID 1919446, Rep 1
[2] = US isolates 2010-2012, isolate CID 1919446, Rep 2
[3] = US isolates 2010-2012, isolate CID 1919519, Rep 1
[4] = US isolates 2010-2012, isolate CID 1919519, Rep 2
[5] = US isolates 2010-2012, isolate CID 1919714, Rep 1
[6] = US isolates 2010-2012, isolate CID 1919714, Rep 2
[7] = US isolates 2010-2012, isolate CID 1919942, Rep 1
[8] = US isolates 2010-2012, isolate CID 1919942, Rep 2
[9] = US isolates 2010-2012, isolate CID 1930670, Rep 1
[10] = US isolates 2010-2012, isolate CID 1930670, Rep 2
[11] = US isolates 2010-2012, isolate CID 1930676, Rep 1
[12] = US isolates 2010-2012, isolate CID 1930676, Rep 2
[13] = US isolates 2010-2012, isolate CID 2727597, Rep 1
[14] = US isolates 2010-2012, isolate CID 2727597, Rep 2
[15] = US isolates 2010-2012, isolate CID 2727598, Rep 1
[16] = US isolates 2010-2012, isolate CID 2727598, Rep 2
[17] = US isolates 2010-2012, isolate CID 2727898, Rep 1
[18] = US isolates 2010-2012, isolate CID 2727898, Rep 2
[19] = US isolates 2010-2012, isolate CID 2728115, Rep 1
[20] = US isolates 2010-2012, isolate CID 2728115, Rep 2
[21] = US isolates 2010-2012, isolate CID 2728119, Rep 1
[22] = US isolates 2010-2012, isolate CID 2728119, Rep 2
[23] = US isolates 2010-2012, isolate CID 2728650, Rep 1
[24] = US isolates 2010-2012, isolate CID 2728650, Rep 2
[25] = US isolates 2010-2012, isolate CID 2728663, Rep 1
[26] = US isolates 2010-2012, isolate CID 2728663, Rep 2
[27] = US isolates 2010-2012, isolate CID 2732481, Rep 1
[28] = US isolates 2010-2012, isolate CID 2732481, Rep 2
[29] = US isolates 2010-2012, isolate CID 2732486, Rep 1
[30] = US isolates 2010-2012, isolate CID 2732486, Rep 2
[31] = US isolates 2010-2012, isolate CID 2762740, Rep 1
[32] = US isolates 2010-2012, isolate CID 2762740, Rep 2
[33] = US isolates 2010-2012, isolate CID 2801947, Rep 1
[34] = US isolates 2010-2012, isolate CID 2801947, Rep 2
[35] = US isolates 2010-2012, isolate CID 2801949, Rep 1
[36] = US isolates 2010-2012, isolate CID 2801949, Rep 2
[37] = US isolates 2010-2012, isolate CID 2802027, Rep 1
[38] = US isolates 2010-2012, isolate CID 2802027, Rep 2
[39] = US isolates 2010-2012, isolate CID 2802028, Rep 1
[40] = US isolates 2010-2012, isolate CID 2802028, Rep 2
[41] = US isolates 2010-2012, isolate CID 2802029, Rep 1
[42] = US isolates 2010-2012, isolate CID 2802029, Rep 2
[43] = US isolates 2010-2012, isolate CID 2802031, Rep 1
[44] = US isolates 2010-2012, isolate CID 2802031, Rep 2
[45] = US isolates 2010-2012, isolate CID 2802109, Rep 2
[46] = US isolates 2010-2012, isolate CID 2802111, Rep 2
[47] = US isolates 2010-2012, isolate CID 2802187, Rep 1
[48] = US isolates 2010-2012, isolate CID 2802187, Rep 2

Measured: MIC

CC(C)(O/N=C(\C(=O)N[C@@H]1C(=O)N2C(C(=O)[O-])=C(C[n+]3ccccc3)CS[C@H]12)c1csc(N)n1)C(=O)O [Ceftaz]
8 µg/mL: [7] | [35] | [46]
2 µg/mL: [17] | [33] | [34] | [36]
> 32 µg/mL: [3] | [4] | [5] | [6] | [9] | [10] | [13] | [14] | [15] | [16] | [19] | [20] | [23] | [24] | [25] | [26] | [29] | [31] | [32] | [37] | [38] | [39] | [40] | [41] | [42] | [43] | [44]
32 µg/mL: [21] | [22] | [27] | [28] | [30] | [45]
4 µg/mL: [1] | [2] | [8] | [11] | [12] | [18] | [47] | [48]

C[C@@H](O)[C@H]1C(=O)N2C(C(=O)O)=C(S[C@@H]3CN[C@H](C(=O)N(C)C)C3)[C@H](C)[C@H]12 [Mero]
0.5 µg/mL: [11] | [12] | [17] | [18]
> 16 µg/mL: [3] | [4] | [5] | [6] | [10] | [13] | [14] | [15] | [16] | [19] | [20] | [21] | [22] | [27] | [28] | [29] | [30] | [31] | [32] | [37] | [38] | [39] | [40] | [41] | [42] | [45] | [46]
0.25 µg/mL: [33] | [34] | [36]
2 µg/mL: [2] | [26] | [48]
1 µg/mL: [1] | [7] | [8] | [25] | [35] | [43] | [44] | [47]
16 µg/mL: [9] | [23] | [24]

CN(C)c1cc(NC(=O)CNC(C)(C)C)c(O)c2c1C[C@H]1C[C@H]3[C@H](N(C)C)C(O)=C(C(N)=O)C(=O)[C@@]3(O)C(O)=C1C2=O [Tig]
2 µg/mL: [1] | [3] | [4] | [5] | [6] | [13] | [14] | [19] | [20] | [21] | [22] | [25] | [27] | [41] | [42] | [46]
8 µg/mL: [32]
1 µg/mL: [2] | [10] | [15] | [16] | [23] | [24] | [26] | [28] | [29] | [30] | [37] | [43] | [44] | [45]
0.5 µg/mL: [8] | [9] | [31] | [35] | [38] | [39] | [40]
0.12 µg/mL: [17] | [18] | [34]
0.25 µg/mL: [7] | [11] | [12] | [33] | [36] | [47] | [48]
